Test results from US9505709B2, “Compositions and methods relating to ionic salts of peptides” (Thetis Pharmaceuticals LLC, priority 2014, dated 2016).
Peptide text beside a SMILES is read from it.

What was measured:
[1] = Stability analysis by 1H NMR of samples exposed to air and light; conditions: ambient temperature
Description: Stability analysis was performed using 1H NMR (400 MHz) with acetic acid-d4 at various time point (typically days 1, 14, 30 and 60) using samples exposed to air and light at ambient temperature (clear vials with no caps).

[2] = Oral pharmacokinetics (oral gavage), plasma free EPA or free DHA; assay type: in vivo, Sprague-Dawley rats; conditions: oral gavage 40 mg/kg, rat
Description: Experiments via Oral Gavage: Oral pharmacokinetic parameters of TP-212 (Lysyl-Lysine Bis-EPA), TP-312 (Lysyl-Lysine Bis-DHA), EPA-EE, EPA FFA and DHA FFA were determined in Sprague-Dawley rats. EPA-EE is 97% pure ethyl ester form of eicosapentaenoic acid. It is the principal polyunsaturated fatty acid in Vascepa, an Omega-3 compound approved in the U.S. for the treatment of severe hypertriglyceridemia. EPA FFA is 97% pure free fatty acid form of eicosapentaenoic acid and DHA FFA is 98% pure free fatty acid DHA. EPA FFA and DHA FFA are the two principal poly-unsaturated fatty acids in Epanova, an Omega-3 compound approved in the U.S. for the treatment of severe hypertriglyceridemia. The subject drugs were administered by oral gavage as an aqueous solution in de-ionized water to 6 Sprague-Dawley rats per group (3 males and 3 females). Rats were dosed at 40 mg/kg. Blood samples were obtained from each rat by jugular vein catheter. Samples were collected at pre-dose and at 0.25, 0.5, 1, 2, 4, 8, 12 and 18 hours post dose. Blood samples were centrifuged to separate red blood cells and the resulting plasma samples were analyzed for free EPA or free DHA. Free EPA or […] extracted from rat plasma with hexane at acidic condition without hydrolysis. Detection was by MS-MS monitoring of negative ion for EPA or DHA. Calculated pharmacokinetic values are mean values from 6 rats for each study drug.
For all figures and tables, the data are adjusted as follows for comparative purposes. First, the actual plasma levels are baseline adjusted. Thus, for each study arm, the pre-dose level (time=0) is subtracted from the actual plasma levels at each time point, with negative values adjusted to zero. Second, these baseline adjusted values are further adjusted to be molar dose equivalent on a comparative basis among the study arms with respect to EPA or DHA payload (i.e., as if equal amounts of free fatty acid EPA or DHA are administered in each study arm).

[3] = 0 h (pre-dose), molar dose equivalent, baseline adjusted
[4] = 0.25 h (15 min), molar dose equivalent, baseline adjusted
[5] = 0.5 h (30 min), molar dose equivalent, baseline adjusted
[6] = 1 h (60 min), molar dose equivalent, baseline adjusted
[7] = 2 h (120 min), molar dose equivalent, baseline adjusted
[8] = 4 h (240 min), molar dose equivalent, baseline adjusted
[9] = 8 h, molar dose equivalent, baseline adjusted
[10] = 12 h, molar dose equivalent, baseline adjusted
[11] = 18 h, molar dose equivalent, baseline adjusted
[12] = molar dose equivalent, baseline adjusted

In the case of `CCC=CCC=CCC=CCC=CCC=CCC=CCCC(=O)O.CCC=CCC=CCC=CCC=CCC=CCC=CCCC(=O)O.N=C(N)NCCCC(N)C(=O)NC(CCCNC(=N)N)C(=O)O` [Arginyl-arginine Bis-DHA], the “Stability by NMR (amount of sample remaining relative to original sample)” value ([1]; Day 3) is reported as 1 (1 = >95%), the “Stability by NMR (amount of sample remaining relative to original sample)” value ([1]; Day 14) is reported as 1 (1 = >95%) and the “Stability by NMR (amount of sample remaining relative to original sample)” value ([1]; Day 30) is reported as 1 (1 = >95%). For the same compound, the “Stability by NMR (amount of sample remaining relative to original sample)” value ([1]; Day 60) was 1 (1 = >95%).
With `CCC=CCC=CCC=CCC=CCC=CCCCC(=O)O.CCC=CCC=CCC=CCC=CCC=CCCCC(=O)O.N=C(N)NCCCC(N)C(=O)NC(CCCNC(=N)N)C(=O)O` (stereo not drawn) [Arginyl-arginine Bis-EPA] (H-Arg-Arg-OH; configuration not given here) the “Stability by NMR (amount of sample remaining relative to original sample)” value ([1]; Day 3) was 1 (1 = >95%), the “Stability by NMR (amount of sample remaining relative to original sample)” value ([1]; Day 14) was 1 (1 = >95%) and the “Stability by NMR (amount of sample remaining relative to original sample)” value ([1]; Day 30) was 1 (1 = >95%). The “Stability by NMR (amount of sample remaining relative to original sample)” value ([1]; Day 60) was 1 (1 = >95%).
In the case of `CCC=CCC=CCC=CCC=CCC=CCC=CCCC(=O)O.CCC=CCC=CCC=CCC=CCC=CCC=CCCC(=O)O.N=C(N)NCCCC(N)C(=O)NC(CCCCN)C(=O)O` [Arginyl-lysine Bis-DHA], the “Stability by NMR (amount of sample remaining relative to original sample)” value ([1]; Day 3) is reported as 1 (1 = >95%), the “Stability by NMR (amount of sample remaining relative to original sample)” value ([1]; Day 14) is reported as 1 (1 = >95%) and the “Stability by NMR (amount of sample remaining relative to original sample)” value ([1]; Day 30) is reported as 1 (1 = >95%). The “Stability by NMR (amount of sample remaining relative to original sample)” value ([1]; Day 60) was 1 (1 = >95%).
With `CCC=CCC=CCC=CCC=CCC=CCCCC(=O)O.CCC=CCC=CCC=CCC=CCC=CCCCC(=O)O.N=C(N)NCCCC(N)C(=O)NC(CCCCN)C(=O)O` [Arginyl-lysine Bis-EPA] the “Stability by NMR (amount of sample remaining relative to original sample)” value ([1]; Day 3) was 1 (1 = >95%), the “Stability by NMR (amount of sample remaining relative to original sample)” value ([1]; Day 14) was 1 (1 = >95%) and the “Stability by NMR (amount of sample remaining relative to original sample)” value ([1]; Day 30) was 1 (1 = >95%). For the same compound, the “Stability by NMR (amount of sample remaining relative to original sample)” value ([1]; Day 60) was 1 (1 = >95%).
In the case of `CC/C=C\C/C=C\C/C=C\C/C=C\C/C=C\CCCC(=O)O.NCCCC[C@H](NC(=O)[C@@H](N)CCCCN)C(=O)O.O=C(O)c1cccnc1` [Compound 7, (L,L) Lysyl-lysine EPA niacin], the “Stability by NMR (amount of sample remaining relative to original sample)” value ([1]; Day 3) is reported as 1 (1 = >95%), the “Stability by NMR (amount of sample remaining relative to original sample)” value ([1]; Day 14) is reported as 1 (1 = >95%) and the “Stability by NMR (amount of sample remaining relative to original sample)” value ([1]; Day 30) is reported as 1 (1 = >95%). For the same compound, the “Stability by NMR (amount of sample remaining relative to original sample)” value ([1]; Day 60) was 1 (1 = >95%).
In the case of `CC/C=C\C/C=C\C/C=C\C/C=C\C/C=C\C/C=C\CCC(=O)O` [DHA-FFA, DHA], the “Tmax (free DHA)” value [2] is reported as 4 h, the “Plasma level of free DHA” value [2, 3] is reported as 0 ng/mL and the “Plasma level of free DHA” value [2, 4] is reported as 0 ng/mL. The “Plasma level of free DHA” value [2, 5] was 1800 ng/mL, the “Plasma level of free DHA” value [2, 6] was 1800 ng/mL and the “Plasma level of free DHA” value [2, 7] was 2200 ng/mL. The “Plasma level of free DHA” value [2, 8] was 3400 ng/mL, the “Plasma level of free DHA” value [2, 9] was 1700 ng/mL and the “Plasma level of free DHA” value [2, 10] was 2100 ng/mL. The “Plasma level of free DHA” value [2, 11] was 1200 ng/mL, the “AUC 0-1 hrs (free DHA)” value [2, 12] was 1100 ng·h/mL and the “AUC 0-4 hrs (free DHA)” value [2, 12] was 8700 ng·h/mL. For the same compound, the “AUC 0-18 hrs (free DHA)” value [2, 12] was 36300 ng·h/mL and the “Cmax (free DHA)” value [2, 12] was 3400 ng/mL.
In the case of `CC/C=C\C/C=C\C/C=C\C/C=C\C/C=C\CCCC(=O)OCC` [EPA ethyl ester], the “Stability by NMR (amount of sample remaining relative to original sample)” value ([1]; Day 3) is reported as 1 (1 = >95%), the “Stability by NMR (amount of sample remaining relative to original sample)” value ([1]; Day 14) is reported as 1-2 and the “Stability by NMR (amount of sample remaining relative to original sample)” value ([1]; Day 30) is reported as 4 (4 = <50%). For the same compound, the “Stability by NMR (amount of sample remaining relative to original sample)” value ([1]; Day 60) was 4 (4 = <50%), the “Tmax (free EPA)” value [2] was 4 h and the “Plasma level of free EPA” value [2, 3] was 0 ng/mL. The “Plasma level of free EPA” value [2, 4] was 300 ng/mL, the “Plasma level of free EPA” value [2, 5] was 500 ng/mL and the “Plasma level of free EPA” value [2, 6] was 700 ng/mL. The “Plasma level of free EPA” value [2, 7] was 800 ng/mL, the “Plasma level of free EPA” value [2, 8] was 1100 ng/mL and the “Plasma level of free EPA” value [2, 9] was 500 ng/mL. For the same compound, the “Plasma level of free EPA” value [2, 10] was 0 ng/mL, the “Plasma level of free EPA” value [2, 11] was 0 ng/mL and the “AUC 0-18 hrs (free EPA)” value [2, 12] was 7200 ng·h/mL. For the same compound, the “Cmax (free EPA)” value [2, 12] was 1100 ng/mL.
In the case of `CC/C=C\C/C=C\C/C=C\C/C=C\C/C=C\CCCC(=O)O` [EPA-FFA, eicosapentaenoic acid], the Tmax ([2]; both sexes, Sprague-Dawley, plasma) is reported as 0.5 h, the concentration at 0 h ([2]; both sexes, Sprague-Dawley, plasma, 0 h (pre-dose), molar dose equivalent, baseline adjusted, read-out: Plasma level of free EPA) is reported as 0 ng/mL and the concentration at 0.25 h ([2]; both sexes, Sprague-Dawley, plasma, 0.25 h (15 min), molar dose equivalent, baseline adjusted, read-out: Plasma level of free EPA) is reported as 0 ng/mL. The concentration at 0.5 h ([2]; both sexes, Sprague-Dawley, plasma, 0.5 h (30 min), molar dose equivalent, baseline adjusted, read-out: Plasma level of free EPA) was 1300 ng/mL, the concentration at 1 h ([2]; both sexes, Sprague-Dawley, plasma, 1 h (60 min), molar dose equivalent, baseline adjusted, read-out: Plasma level of free EPA) was 500 ng/mL and the concentration at 2 h ([2]; both sexes, Sprague-Dawley, plasma, 2 h (120 min), molar dose equivalent, baseline adjusted, read-out: Plasma level of free EPA) was 800 ng/mL. It also gave a concentration at 4 h ([2]; both sexes, Sprague-Dawley, plasma, 4 h (240 min), molar dose equivalent, baseline adjusted, read-out: Plasma level of free EPA) of 1100 ng/mL, a concentration at 8 h ([2]; both sexes, Sprague-Dawley, plasma, 8 h, molar dose equivalent, baseline adjusted, read-out: Plasma level of free EPA) of 900 ng/mL and a concentration at 12 h ([2]; both sexes, Sprague-Dawley, plasma, 12 h, molar dose equivalent, baseline adjusted, read-out: Plasma level of free EPA) of 300 ng/mL. For the same compound, the concentration at 18 h ([2]; both sexes, Sprague-Dawley, plasma, 18 h, molar dose equivalent, baseline adjusted, read-out: Plasma level of free EPA) was 0 ng/mL, the “AUC 0-1 hrs (free EPA)” value [2, 12] was 600 ng·h/mL and the “AUC 0-4 hrs (free EPA)” value [2, 12] was 3100 ng·h/mL. For the same compound, the “AUC 0-18 hrs (free EPA)” value [2, 12] was 10500 ng·h/mL and the “Cmax (free EPA)” value [2, 12] was 1300 ng/mL.
